Results: the supplement of paper PMC6045584
± gives the standard deviation of the averaged measurements.

Legend:
CANERTINIB [1] = compound: T1, C=CC(=O)Nc1cc2c(Nc3ccc(F)c(Cl)c3)ncnc2cc1OCCCN1CCOCC1 [CANERTINIB]; assay: surviving fraction relative to DMSO-only wells; higher = less growth inhibition; details: exposure time: 5 days
Procedure, shortened: (§1)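 Each tumour cell line was screened three times, and only lines with replicate Pearson r >0.7 and median Z' >0.3 were kept. Cells in log phase were seeded at 250–500 per well in 384-well plates, left 24 hours, then exposed continuously for five days to inhibitors at 0.5, 1, 5, 10, 50, 100, 500 and 1000 nM. Viability was read as CellTiter-Glo luminescence, with surviving fraction normalised to the median of DMSO-only wells.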

SNX-5422 [2] = compound: T2, CC1(C)CC(=O)c2c(C(F)(F)F)nn(-c3ccc(C(N)=O)c(N[C@H]4CC[C@H](OC(=O)CN)CC4)c3)c2C1 [SNX-5422]; assay: as above; details: exposure time: 5 days
Procedure, shortened: as §1

SAPACITABINE [3] = compound: T3, CCCCCCCCCCCCCCCC(=O)Nc1ccn([C@@H]2O[C@H](CO)[C@@H](O)[C@@H]2C#N)c(=O)n1 [SAPACITABINE]; assay: as above; details: exposure time: 5 days
Procedure, shortened: as §1

BI-2536 [4] = compound: T4, CC[C@@H]1C(=O)N(C)c2cnc(Nc3ccc(C(=O)NC4CCN(C)CC4)cc3OC)nc2N1C1CCCC1 [BI-2536]; assay: as above; details: exposure time: 5 days
Procedure, shortened: as §1

AFATINIB [5] = compound: T5, CN(C)C/C=C/C(=O)Nc1cc2c(Nc3ccc(F)c(Cl)c3)ncnc2cc1O[C@H]1CCOC1 [AFATINIB]; assay: as above; details: exposure time: 5 days
Procedure, shortened: as §1

MDV3100 [6] = compound: T6, CNC(=O)c1ccc(N2C(=S)N(c3ccc(C#N)c(C(F)(F)F)c3)C(=O)C2(C)C)cc1F [MDV3100]; assay: as above; details: exposure time: 5 days
Procedure, shortened: as §1

[7] = compound: Cn1cc(C2=Nc3cc(NC(=O)C(N)C4CCCCC4)cc4c3C2=CNNC4=O)cn1; assay: as above; details: exposure time: 5 days
Procedure, shortened: as §1

TIOGUANINE [8] = compound: T7, Nc1nc2[nH]cnc2c(=S)[nH]1 [TIOGUANINE]; assay: as above; details: exposure time: 5 days
Procedure, shortened: as §1

CANERTINIB [9] = compound: T1, CANERTINIB; assay: area under dose-response curve of surviving fraction (unscaled, Aref=0) (surviving fraction x log10(nM)); higher = more resistant; details: exposure time: 5 days; dose range 0.5-1000 nM
Procedure, shortened: (§2)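 Inhibitor was applied to tumour cell lines at eight concentrations (0.5 to 1000 nM) for five days in 384-well plates. Luminescence from CellTiter-Glo, scaled to DMSO-only wells, gave surviving fractions in three screens per line, and these were fitted by 3-parameter logistic regression with the drc R package. The area under the curve is an unscaled activity area. Aref was 0, and dose was on a log10 scale.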

SNX-5422 [10] = compound: T2, SNX-5422; assay: as above; details: exposure time: 5 days; dose range 0.5-1000 nM
Procedure, shortened: as §2

SAPACITABINE [11] = compound: T3, SAPACITABINE; assay: as above; details: exposure time: 5 days; dose range 0.5-1000 nM
Procedure, shortened: as §2

BI-2536 [12] = compound: T4, BI-2536; assay: as above; details: exposure time: 5 days; dose range 0.5-1000 nM
Procedure, shortened: as §2

AFATINIB [13] = compound: T5, AFATINIB; assay: as above; details: exposure time: 5 days; dose range 0.5-1000 nM
Procedure, shortened: as §2

MDV3100 [14] = compound: T6, MDV3100; assay: as above; details: exposure time: 5 days; dose range 0.5-1000 nM
Procedure, shortened: as §2

[15] = compound: Cn1cc(C2=Nc3cc(NC(=O)C(N)C4CCCCC4)cc4c3C2=CNNC4=O)cn1; assay: as above; details: exposure time: 5 days; dose range 0.5-1000 nM
Procedure, shortened: as §2

TIOGUANINE [16] = compound: T7, TIOGUANINE; assay: as above; details: exposure time: 5 days; dose range 0.5-1000 nM
Procedure, shortened: as §2

Work on SUM44 BREAST yielded a surviving fraction (CANERTINIB [1]; 0.5 nM) of 0.778 ± 0.15, a surviving fraction (CANERTINIB [1]; 1 nM) of 0.719 ± 0.22 and a surviving fraction (CANERTINIB [1]; 5 nM) of 0.797 ± 0.16. The surviving fraction (CANERTINIB [1]; 10 nM) was 0.796 ± 0.18, the surviving fraction (CANERTINIB [1]; 50 nM) was 1.05 ± 0.063 and the surviving fraction (CANERTINIB [1]; 100 nM) was 0.948 ± 0.16. The surviving fraction (CANERTINIB [1]; 500 nM) was 0.84 ± 0.14, the surviving fraction (CANERTINIB [1]; 1000 nM) was 0.778 ± 0.12 and the surviving fraction (SNX-5422 [2]; 0.5 nM) was 1.02 ± 0.035. It also gave a surviving fraction (SNX-5422 [2]; 1 nM) of 0.987 ± 0.043, a surviving fraction (SNX-5422 [2]; 5 nM) of 0.974 ± 0.013 and a surviving fraction (SNX-5422 [2]; 10 nM) of 0.867 ± 0.024. It also gave a surviving fraction (SNX-5422 [2]; 50 nM) of 0.604 ± 0.015, a surviving fraction (SNX-5422 [2]; 100 nM) of 0.589 ± 0.04 and a surviving fraction (SNX-5422 [2]; 500 nM) of 0.495 ± 0.041. The surviving fraction (SNX-5422 [2]; 1000 nM) was 0.471 ± 0.048, the surviving fraction (SAPACITABINE [3]; 0.5 nM) was 0.781 ± 0.19 and the surviving fraction (SAPACITABINE [3]; 1 nM) was 0.773 ± 0.18. For the same test system, the surviving fraction (SAPACITABINE [3]; 5 nM) was 0.823 ± 0.14, the surviving fraction (SAPACITABINE [3]; 10 nM) was 0.827 ± 0.1 and the surviving fraction (SAPACITABINE [3]; 50 nM) was 0.902 ± 0.12. It also gave a surviving fraction (SAPACITABINE [3]; 100 nM) of 0.686 ± 0.13, a surviving fraction (SAPACITABINE [3]; 500 nM) of 0.68 ± 0.093 and a surviving fraction (SAPACITABINE [3]; 1000 nM) of 0.611 ± 0.07. The surviving fraction (BI-2536 [4]; 0.5 nM) was 0.797 ± 0.039, the surviving fraction (BI-2536 [4]; 1 nM) was 0.378 ± 0.025 and the surviving fraction (BI-2536 [4]; 5 nM) was 0.163 ± 0.0069. It also gave a surviving fraction (BI-2536 [4]; 10 nM) of 0.166 ± 0.022, a surviving fraction (BI-2536 [4]; 50 nM) of 0.158 ± 0.0027 and a surviving fraction (BI-2536 [4]; 100 nM) of 0.154 ± 0.013. It also gave a surviving fraction (BI-2536 [4]; 500 nM) of 0.162 ± 0.013, a surviving fraction (BI-2536 [4]; 1000 nM) of 0.1503 ± 0.00058 and a surviving fraction (AFATINIB [5]; 0.5 nM) of 1.04 ± 0.053. For the same test system, the surviving fraction (AFATINIB [5]; 1 nM) was 1 ± 0.054, the surviving fraction (AFATINIB [5]; 5 nM) was 1.01 ± 0.023 and the surviving fraction (AFATINIB [5]; 10 nM) was 0.995 ± 0.077. The surviving fraction (AFATINIB [5]; 50 nM) was 1.07 ± 0.027, the surviving fraction (AFATINIB [5]; 100 nM) was 1.03 ± 0.022 and the surviving fraction (AFATINIB [5]; 500 nM) was 0.859 ± 0.034. The surviving fraction (AFATINIB [5]; 1000 nM) was 0.448 ± 0.047, the surviving fraction (MDV3100 [6]; 0.5 nM) was 0.963 ± 0.096 and the surviving fraction (MDV3100 [6]; 1 nM) was 0.978 ± 0.08. The surviving fraction (MDV3100 [6]; 5 nM) was 1.06 ± 0.081, the surviving fraction (MDV3100 [6]; 10 nM) was 1.04 ± 0.058 and the surviving fraction (MDV3100 [6]; 50 nM) was 1.13 ± 0.13. The surviving fraction (MDV3100 [6]; 100 nM) was 1.09 ± 0.1, the surviving fraction (MDV3100 [6]; 500 nM) was 1.03 ± 0.071 and the surviving fraction (MDV3100 [6]; 1000 nM) was 1.01 ± 0.1. It also gave a surviving fraction ([7]; 0.5 nM) of 0.896 ± 0.016, a surviving fraction ([7]; 1 nM) of 0.936 ± 0.059 and a surviving fraction ([7]; 5 nM) of 0.905 ± 0.072. The surviving fraction ([7]; 10 nM) was 0.594 ± 0.03, the surviving fraction ([7]; 50 nM) was 0.349 ± 0.028 and the surviving fraction ([7]; 100 nM) was 0.239 ± 0.0068. For the same test system, the surviving fraction ([7]; 500 nM) was 0.232 ± 0.017, the surviving fraction ([7]; 1000 nM) was 0.301 ± 0.015 and the surviving fraction (TIOGUANINE [8]; 0.5 nM) was 0.946 ± 0.03. For the same test system, the surviving fraction (TIOGUANINE [8]; 1 nM) was 0.992 ± 0.046, the surviving fraction (TIOGUANINE [8]; 5 nM) was 1.04 ± 0.035 and the surviving fraction (TIOGUANINE [8]; 10 nM) was 1.04 ± 0.028. For the same test system, the surviving fraction (TIOGUANINE [8]; 50 nM) was 1.03 ± 0.011, the surviving fraction (TIOGUANINE [8]; 100 nM) was 1.09 ± 0.086 and the surviving fraction (TIOGUANINE [8]; 500 nM) was 0.97 ± 0.091. For the same test system, the surviving fraction (TIOGUANINE [8]; 1000 nM) was 1.055 ± 0.0085, the “area under dose-response curve” value (CANERTINIB [9]) was 2.78 and the “area under dose-response curve” value (SNX-5422 [10]) was 2.47. The “area under dose-response curve” value (SAPACITABINE [11]) was 2.51, the “area under dose-response curve” value (BI-2536 [12]) was 0.689 and the “area under dose-response curve” value (AFATINIB [13]) was 3.18. For the same test system, the “area under dose-response curve” value (MDV3100 [14]) was 3.43, the “area under dose-response curve” value [15] was 1.84 and the “area under dose-response curve” value (TIOGUANINE [16]) was 3.39.
